Reference: BigSolDB 2.1

CC(=O)OC(c1ccccc1)C(Cl)(Cl)Cl (stereo unspecified)
solubility (mole fraction)
Conditions | in acetic acid | in acetone | in acetonitrile | in ethanol | in ethyl acetate | in ethyl formate | in isopropanol | in methanol | in n-propanol
288.15 K | 0.0201 | 0.0931 | 0.036 | 0.00865 | 0.117 | 0.0868 | 0.00712 | 0.00659 | 0.0105
293.15 K | 0.0271 | 0.111 | 0.0408 | 0.0108 | 0.137 | 0.105 | 0.00929 | 0.00757 | 0.0132
298.15 K | 0.0379 | 0.133 | 0.0579 | 0.0134 | 0.159 | 0.132 | 0.0129 | 0.00931 | 0.0164
303.15 K | 0.0482 | 0.158 | 0.0719 | 0.0171 | 0.19 | 0.165 | 0.0169 | 0.0121 | 0.0216
308.15 K | 0.0605 | 0.193 | 0.0989 | 0.0217 | 0.218 | 0.198 | 0.0211 | 0.0153 | 0.0287
313.15 K | 0.0767 | 0.232 | 0.13 | 0.029 | 0.251 | 0.236 | 0.0279 | 0.02 | 0.0375
318.15 K | 0.1 | 0.273 | 0.168 | 0.0406 | 0.287 | 0.274 | 0.0382 | 0.0264 | 0.0496
323.15 K | 0.127 | 0.32 | 0.218 | 0.0555 | 0.333 | 0.314 | 0.0538 | 0.0342 | 0.0667
328.15 K | 0.167 | 0.377 | 0.286 | 0.0735 | 0.38 | 0.363 | 0.0742 | 0.0447 | 0.0905
